Laboratory results as given in patent US8049037B2, “Sphingosine-1-phosphate (S1P) receptor antagonists and methods for use thereof” (Allergan, Inc., priority 2008, dated 2011).
pIC50: −log10 of the molar value.

Molecular target: T1, human S1P3 receptor (Homo sapiens, UniProt Q99500)
T1 construct: expressed in transfected cells
Test: S1P3 FLIPR Ca2+ assay in T24 cells stably expressing the human S1P3 receptor
Type: cell-based
Details: for pIC50: tested over 0.61 nM to 10,000 nM, read-out: IC50, activity potency human S1P3 receptor from FLIPR
Procedure: The compounds of the invention were tested for S1P3 activity using the Flipr assay. The compounds may be assessed for ability to activate or block activation of the human S1P3 receptor in T24 cells stably expressing the human S1P3 receptor. Ten thousand cells/well are plated into 384-well poly-D-lysine coated plates one day prior to use. The growth media for the S1P3 receptor expressing cell line McCoy's 5A medium supplemented with 10% charcoal-treated fetal bovine serum (FBS), 1% antibiotic-antimycotic and 400 μg/mL genetecin. On the day of the experiment, the cells are washed twice Hank's Balanced Salt Solution supplemented with 20 mM HEPES (HBSS/Hepes buffer). The cells are then dye loaded with 2 μM Fluo-4 diluted in the HBSS/Hepes buffer with 1.25 mM Probenecid and incubated at 37° C. for 40 minutes. Extracellular dye is removed by washing the cell plates four times prior to placing the plates in the FLIPR (Fluorometric Imaging Plate Reader, Molecular Devices). Ligands are diluted in HBSS/Hepes buffer and prepared in 384-well microplates. The positive control, Sphingosine-1-phosphate (SIP), is diluted in HBSS/Hepes buffer with 4 mg/mL fatty acid free bovine serum albumin. The FLIPR transfers 12.5 μL from the ligand microplate to the cell plate and takes fluorescent measurements for 75 seconds, taking readings every second, and then for 2.5 minutes, taking readings every 10 seconds. Drugs are tested over the concentration range of 0.61 nM to 10,000 nM. Data for Ca^+2 responses are obtained in arbitrary fluorescence units and not translated into Ca^+2 concentrations. IC50 values are determined through a […] analysis using the Levenburg Marquardt algorithm.

T1 sequence (Q99500 whole entry): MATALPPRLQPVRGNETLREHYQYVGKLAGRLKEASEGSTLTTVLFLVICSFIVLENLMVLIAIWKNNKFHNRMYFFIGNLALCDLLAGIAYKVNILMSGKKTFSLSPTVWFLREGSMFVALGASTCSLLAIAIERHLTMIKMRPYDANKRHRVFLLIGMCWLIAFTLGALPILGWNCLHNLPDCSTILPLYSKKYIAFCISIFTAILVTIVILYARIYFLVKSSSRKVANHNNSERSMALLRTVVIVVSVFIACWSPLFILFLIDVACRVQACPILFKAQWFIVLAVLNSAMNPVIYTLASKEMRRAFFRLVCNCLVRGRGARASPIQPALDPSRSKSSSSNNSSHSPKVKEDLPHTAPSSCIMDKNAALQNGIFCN

% Antagonism, human S1P3 receptor from FLIPR	pIC50	Structure (SMILES)
93%	5.86	O=C(NC(Nc1ccc([N+](=O)[O-])cc1)C(Cl)(Cl)Cl)c1ccc(Cl)cc1 (stereo not drawn)
97%	6.83	O=C(NC(Nc1ccccc1)C(Cl)(Cl)Cl)c1ccc(Br)cc1 (stereo not drawn)
96%	6.56	COc1ccc(C(=O)NC(Nc2ccc(Cl)cc2)C(Cl)(Cl)Cl)cc1 (stereo not drawn)
94%	5.82	O=C(NC(Nc1ccc(Cl)cc1)C(Cl)(Cl)Cl)c1cccc(Cl)c1 (stereo not drawn)
94%	6.31	COc1ccc(NC(NC(=O)c2ccc(Br)cc2)C(Cl)(Cl)Cl)cc1 (stereo not drawn)
98%	6.33	COc1ccc(C(=O)NC(Nc2ccc(C)cc2)C(Cl)(Cl)Cl)cc1 (stereo not drawn)
91%	5.84	O=C(NC(Nc1ccc(Br)cc1)C(Cl)(Cl)Cl)c1ccc([N+](=O)[O-])cc1 (stereo not drawn)
76%	5.94	Cc1ccc(C(=O)NC(Nc2ccc(Cl)cc2)C(Br)(Br)Br)cc1 (stereo not drawn)
56%	5.85	O=C(NC(Nc1ccccc1C(F)(F)F)C(Cl)(Cl)Cl)c1ccco1 (stereo not drawn)
98%	6.44	O=C(NC(Nc1ccc(Br)cc1)C(Cl)(Cl)Cl)c1ccco1 (stereo not drawn)
96%	7.80	O=C(NC(Nc1ccc(Cl)cc1)C(Cl)(Cl)Cl)c1ccc(Br)cc1 (single isomer, unassigned; (-)) [(−)-4-bromo-N-(2,2,2-trichloro-1-(4-chlorophenylamino)ethyl)benzamide]
99%	8.85	O=C(NC(Nc1ccc(Cl)cc1)C(Cl)(Cl)Cl)c1ccc(Br)cn1 (single isomer, unassigned; (-)) [(−)-5-bromo-N-(2,2,2-trichloro-1-(4-chlorophenylamino)ethyl)picolinamide]
95%	6.59	O=C(NC(Nc1ccc(Cl)cc1)C(Cl)(Cl)Cl)c1ccc(F)c(F)c1 (stereo not drawn) [3,4-difluoro-N-(2,2,2-trichloro-1-(4-chlorophenylamino)ethyl)benzamide]
100%	7.01	O=C(NC(Nc1ccc(Cl)cc1)C(Br)(Br)Br)c1ccc(Br)cc1 (stereo not drawn) [4-bromo-N-(2,2,2-tribromo-1-(4-chlorophenylamino)ethyl)benzamide]
96%	7.55	O=C(NC(Nc1ccc(Cl)cc1)C(Cl)(Cl)Cl)c1ccc(Br)cc1 (stereo not drawn) [4-bromo-N-(2,2,2-trichloro-1-(4-chlorophenylamino)ethyl)benzamide]
90%	8.02	O=C(NC(Nc1ccc(Cl)cc1)C(Cl)(Cl)Cl)c1cc(Br)co1 (stereo not drawn) [4-bromo-N-(2,2,2-trichloro-1-(4-chlorophenylamino)ethyl)furan-2-carboxamide]
100%	7.14	Cc1ccc(NC(NC(=O)c2ccc(Br)cc2)C(Cl)(Cl)Cl)cc1 (stereo not drawn) [4-bromo-N-(2,2,2-trichloro-1-(p-tolylamino)ethyl)benzamide]
100%	5.52	O=C(NC(Nc1ccc(Cl)cc1)C(F)(F)F)c1ccc(Br)cc1 (stereo not drawn) [4-bromo-N-[1-(4-chlorophenylamino)-2,2,2-trifluoro-ethyl]-benzamide]

% Antagonism, human S1P3 receptor from FLIPR	pIC50	Structure (SMILES)
95%	6.96	O=C(NC(Nc1ccc(Cl)c(F)c1)C(Cl)(Cl)Cl)c1ccc(Br)cc1 (stereo not drawn) [4-bromo-N-[2,2,2-trichloro-1-(4-chloro-3-fluoro-phenylamino)-ethyl]-benzamide]
100%	6.84	O=C(NC(Nc1ccc(Cl)cc1)C(Cl)(Cl)Cl)c1ccc(Cl)cc1 (stereo not drawn) [4-chloro-N-(2,2,2-trichloro-1-(4-chlorophenylamino)ethyl)benzamide]
99%	8.33	O=C(NC(Nc1ccc(Cl)cc1)C(F)(F)F)c1ccc(Br)cn1 (stereo not drawn) [5-Bromo-N-(1-(4-chlorophenylamino)-2,2,2-trifluoroethyl)picolinamide]
99%	5.78	O=C(NC(Nc1ccc(Cl)cc1)C(F)(F)Cl)c1ccc(Br)cn1 (stereo not drawn) [5-Bromo-N-(2-chloro-1-(4-chlorophenylamino)-2,2-difluoroethyl)picolinamide]
98%	8.20	O=C(NC(Nc1ccc(Cl)cc1)C(Cl)(Cl)Cl)c1ccc(Cl)cn1 (stereo not drawn) [5-Chloro-N-(2,2,2-trichloro-1-(4-chlorophenylamino)ethyl)picolinamide]
99%	8.70	O=C(NC(Nc1ccc(Cl)cc1)C(Cl)(Cl)Cl)c1ccc(Br)cn1 (stereo not drawn) [5-bromo-N-(2,2,2-trichloro-1-(4-chlorophenylamino)ethyl)picolinamide]
95%	6.15	O=C(NC(Nc1ccc(Cl)cc1)C(Cl)(Cl)Cl)c1ccc(Br)o1 (stereo not drawn) [5-bromo-furan-2-carboxylic acid (2,2,2-trichloro-1-(4-chloro-phenylamino)-ethyl)-amide]
97%	6.61	O=C(NC(Nc1ccc(Cl)cc1)C(Cl)(Cl)Cl)c1ccc(Br)nc1 (stereo not drawn) [6-bromo-N-(2,2,2-trichloro-1-(4-chlorophenylamino)ethyl)nicotinamide]
98%	6.54	O=C(NC(Nc1ccc(Cl)c(F)c1)C(Cl)(Cl)Cl)c1ccco1 (stereo not drawn) [Furan-2-carboxylic acid (2,2,2-trichloro-1-(4-chloro-3-fluoro-phenylamino)-ethyl)-amide]
100%	6.34	Cc1ccc(NC(NC(=O)c2ccco2)C(Cl)(Cl)Cl)cc1 (stereo not drawn) [Furan-2-carboxylic acid (2,2,2-trichloro-1-p-tolylamino-ethyl)-amide]
41%	5.83	Cc1cccc(C)c1NC(NC(=O)c1ccco1)C(Cl)(Cl)Cl (stereo not drawn) [N-{2,2,2-trichloro-1-[(2,6-dimethylphenyl)amino]ethyl}-2-furamide]
102%	5.85	Cc1ccc(NC(NC(=O)c2ccco2)C(Cl)(Cl)Cl)c(F)c1 (stereo not drawn) [N-{2,2,2-trichloro-1-[(2-fluoro-4-methylphenyl)amino]ethyl}-2-furamide]
98%	5.96	O=C(NC(Nc1ccccc1F)C(Cl)(Cl)Cl)c1ccco1 (stereo not drawn) [N-{2,2,2-trichloro-1-[(2-fluorophenyl)amino]ethyl}-2-furamide]
100%	6.44	O=C(NC(Nc1cccc(F)c1)C(Cl)(Cl)Cl)c1ccco1 (stereo not drawn) [N-{2,2,2-trichloro-1-[(3-fluorophenyl)amino]ethyl}-2-furamide]
98%	6.57	O=C(NC(Nc1ccc(Cl)cc1)C(Cl)(Cl)Cl)c1ccco1 (stereo not drawn) [N-{2,2,2-trichloro-1-[(4-chlorophenyl)amino]ethyl}-2-furamide]
95%	5.93	Cc1cc(F)ccc1NC(NC(=O)c1ccco1)C(Cl)(Cl)Cl (stereo not drawn) [N-{2,2,2-trichloro-1-[(4-fluoro-2-methylphenyl)amino]ethyl}-2-furamide]
99%	6.37	Cc1cc(NC(NC(=O)c2ccco2)C(Cl)(Cl)Cl)ccc1F (stereo not drawn) [N-{2,2,2-trichloro-1-[(4-fluoro-3-methylphenyl)amino]ethyl}-2-furamide]
99%	6.30	O=C(NC(Nc1ccc(F)cc1)C(Cl)(Cl)Cl)c1ccco1 (stereo not drawn) [N-{2,2,2-trichloro-1-[(4-fluorophenyl)amino]ethyl}-2-furamide]
